Experiments:
[1] = test system: NK-YS (IL-2 2.5 ng/mL); experiment: drug sensitivity score (DSS) (DSS units); higher = more sensitive; extreme values may be limits of the assay; settings: 72 h
[2] = test system: normal primary NK cells, pool 2 (3 donors) (IL-2 2.5 ng/mL); experiment: as above; settings: 72 h
[3] = test system: NK-92 (IL-2 2.5 ng/mL); experiment: as above; settings: 72 h
[4] = test system: KAI3 (IL-2 2.5 ng/mL); experiment: as above; settings: 72 h
[5] = test system: YT (IL-2 2.5 ng/mL); experiment: as above; settings: 72 h
[6] = test system: normal primary NK cells, pool 1 (3 donors), resting (IL-2 0 ng/mL); experiment: as above; settings: 72 h
[7] = test system: NKL (IL-2 2.5 ng/mL); experiment: as above; settings: 72 h
[8] = test system: normal primary NK cells, pool 1 (3 donors) (IL-2 2.5 ng/mL); experiment: as above; settings: 72 h
[9] = test system: normal primary NK cells, pool 3 (3 donors) (IL-2 2.5 ng/mL); experiment: as above; settings: 72 h
[10] = test system: IMC-1 (IL-2 20 ng/mL); experiment: as above; settings: 72 h
[11] = test system: SNK-6 (IL-2 2.5 ng/mL); experiment: as above; settings: 72 h
[12] = test system: KHYG-1 (IL-2 2.5 ng/mL); experiment: as above; settings: 72 h
[13] = test system: DERL-7 (IL-2 2.5 ng/mL); experiment: as above; settings: 72 h
[14] = test system: normal NK cells expanded with K562-aAPC; experiment: as above; settings: 72 h; IL-2 2.5 ng/mL
Experimental: (§1)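 Drug sensitivity and resistance testing on K562-aAPC-expanded normal NK cells: 5 concentrations (10-fold steps over a 10,000-fold range), 72 h at 37 °C, viability by CellTiter-Glo normalised to DMSO and benzethonium chloride controls; DSS from the fitted curve.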

[15] = test system: NK-YS (IL-2 2.5 ng/mL); experiment: percent inhibition of viability; higher = more inhibition; settings: 72 h
[16] = test system: normal primary NK cells, pool 2 (3 donors) (IL-2 2.5 ng/mL); experiment: as above; settings: 72 h
[17] = test system: NK-92 (IL-2 2.5 ng/mL); experiment: as above; settings: 72 h
[18] = test system: KAI3 (IL-2 2.5 ng/mL); experiment: as above; settings: 72 h
[19] = test system: YT (IL-2 2.5 ng/mL); experiment: as above; settings: 72 h
[20] = test system: normal primary NK cells, pool 1 (3 donors), resting (IL-2 0 ng/mL); experiment: as above; settings: 72 h
[21] = test system: NKL (IL-2 2.5 ng/mL); experiment: as above; settings: 72 h
[22] = test system: normal primary NK cells, pool 1 (3 donors) (IL-2 2.5 ng/mL); experiment: as above; settings: 72 h
[23] = test system: normal primary NK cells, pool 3 (3 donors) (IL-2 2.5 ng/mL); experiment: as above; settings: 72 h
[24] = test system: IMC-1 (IL-2 20 ng/mL); experiment: as above; settings: 72 h
[25] = test system: SNK-6 (IL-2 2.5 ng/mL); experiment: as above; settings: 72 h
[26] = test system: KHYG-1 (IL-2 2.5 ng/mL); experiment: as above; settings: 72 h
[27] = test system: DERL-7 (IL-2 2.5 ng/mL); experiment: as above; settings: 72 h
[28] = test system: normal NK cells expanded with K562-aAPC; experiment: as above; settings: 72 h, IL-2 2.5 ng/mL
Experimental: as §1

O=C(O)c1ccc(Nc2ncc3c(n2)-c2ccc(Cl)cc2C(c2c(F)cccc2F)=NC3)cc1 [MLN-8054] (max concentration tested 10000 nM)
Settings | drug sensitivity score
[1] | 19
[2] | 0.7
[3] | 8.69
[4] | 12.2
[5] | 11.9
[6] | 0.03
[7] | 14
[8] | 0
[9] | 0.29
[10] | 7.96
[11] | 21.2
[12] | 14.3
[13] | 8.47
[14] | 7.83

percent inhibition of viability [%]
Settings | 1 nM | 10 nM | 100 nM | 1000 nM | 10000 nM
[15] | 5.25 | 3.3 | 40.5 | 74 | 86.5
[16] | 1.69 | -1.38 | 2.04 | -0.41 | 21.9
[17] | 7.92 | 3.31 | 17.5 | 33.8 | 65.2
[18] | 5.5 | 5.3 | 20.2 | 51.7 | 71.4
[19] | 4.9 | 5.88 | 21 | 51.3 | 62
[20] | 19.2 | -7.07 | 0.26 | -14.7 | 13.3
[21] | 12.4 | 12.3 | 30.5 | 66.5 | 36.9
[22] | -5.64 | -11.5 | -5.12 | -17.1 | 3.94
[23] | 5.09 | 2.04 | 1 | 3.1 | 12.9
[24] | 2.52 | 4.23 | 18.1 | 27.9 | 87.8
[25] | -1.52 | 0.61 | 53.3 | 78.6 | 81.5
[26] | 4.03 | 6.1 | 20 | 64.1 | 79
[27] | -1.42 | -2.27 | -2.98 | 42.2 | 63.5
[28] | 0.34 | 1.46 | -1.49 | 39.7 | 57.7

S=c1[nH]cnc2nc[nH]c12 [Mercaptopurine] (max concentration tested 10000 nM)
Settings | drug sensitivity score
[1] | 11.6
[2] | 0
[3] | 8.34
[4] | 3.99
[5] | 8.11
[6] | 0
[7] | 0
[8] | 0
[9] | 0
[10] | 8.45
[11] | 19.7
[12] | 9.71
[13] | 4.05
[14] | 0.11

percent inhibition of viability [%]
Settings | 1 nM | 10 nM | 100 nM | 1000 nM | 10000 nM
[15] | -2.27 | -1.87 | 9.74 | 52.6 | 90.4
[16] | -14.1 | -7.32 | -6.91 | -13.4 | 3.06
[17] | -10.3 | -10.7 | 12.1 | 38.5 | 53.5
[18] | -5.39 | -4.2 | -7.01 | 6.69 | 53.7
[19] | -0.59 | -2.35 | 3.64 | 24.6 | 81.8
[20] | -2.87 | -18.3 | -8.34 | -34.9 | -22.3
[21] | -15.5 | 0 | -11.9 | -4.76 | 6.22
[22] | -1.1 | -6.11 | -2.9 | -10.7 | 0.61
[23] | -16.8 | -9.02 | -3.33 | -7.89 | 8.16
[24] | -3.21 | -3.47 | 2.38 | 21.7 | 91.4
[25] | 11.4 | 16.1 | 38.4 | 75.4 | 94.4
[26] | -2.69 | -0.22 | 5.34 | 30 | 99.3
[27] | -4.35 | -1.44 | 0.98 | 9.85 | 47
[28] | -5.16 | 4.06 | -1.48 | 3.65 | 11.2

C[C@H]1C[C@@H]2[C@H]([C@@H](O)C[C@@]3(C)[C@H]2CC[C@]3(O)C(=O)CO)[C@@]2(C)C=CC(=O)C=C12 [Methylprednisolone] (max concentration tested 10000 nM)
Settings | drug sensitivity score
[1] | 0.89
[2] | 21.3
[3] | 0
[4] | 2.54
[5] | 10.3
[6] | 31.7
[7] | 23
[8] | 23.3
[9] | 13.5
[10] | 0
[11] | 0.13
[12] | 10.5
[13] | 32.1
[14] | 20.6

percent inhibition of viability [%]
Settings | 1 nM | 10 nM | 100 nM | 1000 nM | 10000 nM
[15] | -6.22 | -4.6 | 0.39 | 6.37 | 16.5
[16] | -6.66 | 20.1 | 52.2 | 69.9 | 76.8
[17] | -14.6 | -20.1 | -27.4 | -10.6 | 3.24
[18] | -8.86 | -6.63 | -0.28 | 7.95 | 30.7
[19] | -5.71 | 10.2 | 19.4 | 43.3 | 53.1
[20] | -1.18 | 47.6 | 75.4 | 84.2 | 87.2
[21] | 4.02 | 31.1 | 57 | 63.6 | 67.6
[22] | 6.03 | 24 | 56.2 | 75.3 | 81.7
[23] | -7.17 | 8.16 | 33.7 | 46.2 | 58.4
[24] | -4.86 | -2.72 | -15.2 | -4.89 | -2.93
[25] | 7.96 | -13.3 | -4.6 | -6.43 | 15.4
[26] | -4.65 | 5.05 | 18.2 | 46 | 55.1
[27] | -1.31 | 19 | 94 | 100 | 101
[28] | -4.84 | 16.6 | 51.6 | 67.2 | 74.4

FC(F)(F)c1ccc(/C=C/c2nc(COc3ccc(CCCCn4ccnn4)cc3)co2)cc1 [Mubritinib] (max concentration tested 1000 nM)
Settings | drug sensitivity score
[1] | 13
[2] | 7.39
[3] | 6.23
[4] | 5.59
[5] | 11
[6] | 14.7
[7] | 8.04
[8] | 11.5
[9] | 4.94
[10] | 20.6
[11] | 0
[12] | 9.82
[13] | 4.52
[14] | 0.75

percent inhibition of viability [%]
Settings | 0.1 nM | 1 nM | 10 nM | 100 nM | 1000 nM
[15] | -3.84 | -4.99 | 8.6 | 64 | 81.2
[16] | -5.29 | -7.28 | 16.6 | 27.6 | 34.2
[17] | -8.31 | -12.6 | 7.62 | 30.8 | 42.3
[18] | 3.33 | -9.68 | -0.43 | 26.5 | 45.4
[19] | -2.71 | -3.53 | 24 | 44.2 | 39.6
[20] | 10 | 1.44 | 28.5 | 61 | 64.8
[21] | -16.4 | -8.04 | 7.63 | 38.2 | 57.6
[22] | -7.65 | 0.13 | 21.1 | 48.2 | 50.2
[23] | -9.77 | -2.9 | 15.1 | 21.5 | 34
[24] | -1.73 | -4.86 | 37.2 | 86.6 | 31.2
[25] | -13.7 | -12.2 | 4.91 | 4.95 | 7.75
[26] | -2.15 | -7.85 | 17 | 42.5 | 66.5
[27] | 1.75 | 0.44 | 5.74 | 24.8 | 27
[28] | -6.01 | -7.06 | -7.66 | 9.52 | 14.1

CCN1CCN(Cc2ccc(-c3cc4c(N[C@H](C)c5ccccc5)ncnc4[nH]3)cc2)CC1 [NVP-AEE788] (max concentration tested 2500 nM)
Settings | drug sensitivity score
[1] | 0.35
[2] | 0
[3] | 4.8
[4] | 1.9
[5] | 2.2
[6] | 0.04
[7] | 4.63
[8] | 0
[9] | 0
[10] | 0
[11] | 0
[12] | 0.75
[13] | 1.24
[14] | 1.88

percent inhibition of viability [%]
Settings | 0.25 nM | 2.5 nM | 25 nM | 250 nM | 2500 nM
[15] | -8.61 | -8.85 | -3.03 | -1.23 | 17.7
[16] | -10.9 | 9.29 | 3.66 | 5.84 | 2.8
[17] | -16 | -4.1 | -2.66 | 13.6 | 51
[18] | -3.14 | -7.58 | -0.99 | 5.51 | 26.6
[19] | -6.59 | -5.53 | -3.48 | 7.61 | 27.4
[20] | -1.29 | 14.4 | 9.7 | 11.1 | 5.88
[21] | -2.78 | 3.21 | 7.84 | 20 | 48.2
[22] | 4.7 | 13.8 | 6.81 | 9.36 | 16.1
[23] | -4.61 | 9.35 | 9.18 | 5.89 | -1.16
[24] | -8.78 | -2.35 | 1.14 | -4.8 | 5.2
[25] | -12.2 | -14.1 | -23.9 | -6.92 | 9.17
[26] | -7.12 | -8.65 | -3.24 | -0.41 | 22.7
[27] | -0.87 | 0.92 | 1.23 | 5.24 | 19.9
[28] | -8.59 | -5.81 | -0.99 | 4.64 | 27.8

Reference: the supplement of paper PMC5908809
